Results as given in US20210145802A1, “THERAPY FOR OPHTHALMOLOGICAL CONDITIONS” (WREN THERAPEUTICS LIMITED, priority 2018, published 2021).

Tests used:
Assay type in all cases: biochemical
Aβ42 fibrils = molecular target: T1, Aβ42 fibrils (Homo sapiens, UniProt P05067); assay: Dot-blot assay with fibril-specific OC antibody; settings: 2 μM Aβ42; 5-fold excess of compound; eight time points
T1 construct: […]; made in house; host or cells: E. coli BL21 Gold (DE3)
Experimental: Blotting was performed using Aβ42 fibril-specific antibody (OC, Millipore). During the time course of the aggregation of a 2 μM Aβ42 in the absence and in the presence of 5-fold excess of Netoglitazone, 4 μL Aβ42 aliquots were removed from the mixture at different time points for blotting with OC. Aβ42 aliquots were spotted onto a nitrocellulose membrane (0.2 μm, Whatman) and then the membranes were dried and then blocked with Blocking One (Nacalai tesque) before immuno-detection. OC was used according to the manufacturer's instructions. Alexa Fluor® 488-conjugated secondary antibodies (Life technologies) were subsequently added and fluorescence detection was performed using Typhoon Trio Imager (GE Healthcare).

Aβ42 = molecular target: T2, Aβ42 (Homo sapiens, UniProt P05067); assay: ThT kinetic assay of Aβ42 fibril formation (unseeded); settings: 2 μM Aβ42; range of Netoglitazone concentrations; ThT fluorescence
T2 construct: […]; made in house; host or cells: E. coli BL21 Gold (DE3)
T2 sequence (P05067 671-713): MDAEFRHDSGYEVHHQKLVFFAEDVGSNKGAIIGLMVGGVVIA
Description: The recombinant Aβ(M1-42) peptide ([…]-SNKGAIIGLMVGGVVIA [SEQ ID NO: 1]), here called Aβ42, was expressed in the E. coli BL21 Gold (DE3) strain (Stratagene, CA, U.S.A.) and purified as described previously with slight modifications. Briefly, the purification procedure involved sonication of E. coli cells, dissolution of inclusion bodies in 8 M urea, and ion exchange in batch mode on diethylaminoethyl cellulose resin and lyophylization. The lyophilized fractions were further purified using Superdex 75 HR 26/60 column (GE Healthcare, Buckinghamshire, U.K.) and eluates were analyzed using SDS-PAGE for the presence of the desired protein product. The fractions containing the recombinant protein were combined, frozen using liquid nitrogen, and lyophilized again.
Except for Netoglitazone, which was custom synthesised by GVK BIO, all small molecules were purchased with a purity greater than 99%. Small molecules were first solubilized in 100% DMSO to a concentration of 5 mM, and then diluted in the peptide solution to reach a final DMSO concentration of maximum 1-3%. We verified that the addition of DMSO in the reaction mixture has no effect on Aβ42 aggregation.
Solutions of monomeric peptides were prepared by dissolving the lyophilized Aβ42 peptide in 6 M GuHCl. Monomeric forms were purified from potential oligomeric species and salt using a Superdex 75 10/300 GL column (GE Healthcare) at a flowrate of 0.5 mL/min, and were eluted in 20 mM sodium phosphate buffer, pH 8 supplemented with 200 μM EDTA and 0.02% NaN3. The centre of the peak was collected, and the peptide concentration was determined from the absorbance of the integrated peak area using ε280=1490 L mol^−1 cm^−1. The obtained monomer was diluted with buffer to the desired concentration and supplemented with 20 μM Thioflavin T (ThT) from a 1 mM stock. All samples were prepared in low binding Eppendorf tubes on ice using careful pipetting to avoid introduction of air bubbles. Each sample was then pipetted into multiple wells of a 96-well half-area, low-binding, clear bottom and PEG coating plate (Corning 3881), 80 μL per well. Aβ42 kinetics have been performed in the absence or the presence of Netoglitazone, Mitoglitazone, Rosiglotazone, Rivoglitazone, Pioglitazone, Ciglitazone, Englitazone, Darglitazone, Troglitazone and B alaglitazone.

Aβ42 oligomers = molecular target: T3, Aβ42 oligomers (Homo sapiens, UniProt P05067); assay: Ca2+ influx assay (lipid vesicle disruption by aggregates); settings: 2 μM Aβ42; 5-fold excess added at 0 h; measured at 2 h
T3 construct: […]; made in house; host or cells: E. coli BL21 Gold (DE3)
T3 sequence (P05067 671-713): as above
Experimental: Single vesicles tethered to PLL-PEG coated borosilicate glass coverslides (VWR International, 22×22 mm, product number 63 1-0122) were placed on an oil immersion objective mounted on an inverted Olympus IX-71 microscope. Each coverslide was affixed at Frame-Seal incubation chambers and was incubated with 50 μL of HEPES buffer of pH 6.5. Just before the imaging, the HEPES buffer was replaced with 50 μL Ca^2+ containing buffer solution L-15. 16 (4×4) images of the coverslide were recorded under three different conditions (background, in the presence of Aβ42 and after addition of ionomycin (Cambridge Bioscience Ltd, Cambridge, UK), respectively). The distance between each field of view was set to 100 μm, and was automated (bean-shell script, Micromanager) to avoid any user bias. After each measurement the script allowed the stage (Prior H117, Rockland, Mass., USA) to move the field of view back to the start position such that identical fields of view could be acquired for the three different conditions. Images of the background were acquired in the presence of L15 buffer. For each field of view 50 images were taken with an exposure time of 50 ms. […] The recorded images were analysed using ImageJ to determine the fluorescence intensity of each spot under the three different conditions in the presence of an aggregation mixture incubated with and without Netoglitazone.

T1 sequence (P05067 671-713): as above

**Q.** For `O=C1NC(=O)C(Cc2ccc3cc(OCc4ccccc4F)ccc3c2)S1` (stereo not drawn) [Netoglitazone], which “delay of Aβ42 fibril formation in dot blot assay compared with ThT-based assay” value (Aβ42 fibrils) is on record?
**A.** identical within experimental error

**Q.** And the “delay in Aβ42 aggregation” value (Aβ42)?
**A.** substantial delay

**Q.** And the “protection against vesicle disruption (Ca2+ influx) by Aβ42 species” value (Aβ42 oligomers)?
**A.** protected against the neurotoxic species-induced vesicle disruption
